Species: Rattus norvegicus
Experiment: DrugMatrix - Regimen: Daily Repeat
Assay type: toxicity, organism-based, Sprague-Dawley
Set-up: regimen Daily Repeat, gender Male, age 6-8 weeks
Conditions: in vivo, po, route oral GAVAGE, vehicle 100 % WATER; for ABSOLUTE BASOPHIL / ABSOLUTE EOSINOPHIL / ABSOLUTE LYMPHOCYTE / ABSOLUTE MONOCYTE / ABSOLUTE SEGMENTED NEUTROPHIL / BASOPHIL / EOSINOPHIL / ERYTHROCYTE COUNT / HEMATOCRIT / HEMOGLOBIN / LEUKOCYTE COUNT / LYMPHOCYTE / MEAN CORPUSCULAR HEMOGLOBIN / MEAN CORPUSCULAR HEMOGLOBIN CONCENTRATION / MEAN CORPUSCULAR VOLUME / MONOCYTE / NEUTROPHIL / NUCLEATED RED BLOOD CELLS / PLATELET COUNT: tissue Blood; for ALANINE AMINOTRANSFERASE / ALBUMIN / ALKALINE PHOSPHATASE / ASPARTATE AMINOTRANSFERASE / BLOOD UREA NITROGEN / CARBON DIOXIDE / CHLORIDE / CHOLESTEROL / CREATINE PHOSPHOKINASE / CREATININE / GLUCOSE / LACTATE DEHYDROGENASE / LIPASE / PHOSPHORUS / POTASSIUM / SODIUM / TOTAL BILIRUBIN / TOTAL PROTEIN / URIC ACID: tissue Plasma
[1] = 39 mg/kg, 120 h, dose level Low, time 5 day
[2] = 150 mg/kg, 72 h, dose level High, time 3 day
[3] = 150 mg/kg, 120 h, dose level High, time 5 day

Structure (SMILES): C[C@]12Cc3c[nH]nc3C[C@@H]1CC[C@@H]1[C@@H]2CC[C@@]2(C)[C@H]1CC[C@]2(C)O [STANOZOLOL]
- ABSOLUTE BASOPHIL [1]: 0 CELLS/uL
- ABSOLUTE EOSINOPHIL [1]: 55.33 CELLS/uL
- ABSOLUTE LYMPHOCYTE [1]: 11411 CELLS/uL
- ABSOLUTE MONOCYTE [1]: 142 CELLS/uL
- ABSOLUTE SEGMENTED NEUTROPHIL [1]: 1025 CELLS/uL
- BASOPHIL [1]: 0%
- EOSINOPHIL [1]: 0.33%
- ERYTHROCYTE COUNT [1]: 5.64 x10E6/uL
- HEMATOCRIT [1]: 35.63%
- HEMOGLOBIN [1]: 13.63 G/DL
- LEUKOCYTE COUNT [1]: 12.63 x10E3/uL
- LYMPHOCYTE [1]: 90.33%
- MEAN CORPUSCULAR HEMOGLOBIN [1]: 24.33 pg
- MEAN CORPUSCULAR HEMOGLOBIN CONCENTRATION [1]: 38.33 G/DL
- MEAN CORPUSCULAR VOLUME [1]: 63.43 fL
- MONOCYTE [1]: 1.33%
- NEUTROPHIL [1]: 8%
- NUCLEATED RED BLOOD CELLS [1]: 0.67 /100WBC
- PLATELET COUNT [1]: 1199.33 x10E3/uL
- ALANINE AMINOTRANSFERASE [1]: 55.67 u/L
- ALBUMIN [1]: 3.87 G/DL
- ALKALINE PHOSPHATASE [1]: 492.33 u/L
- ASPARTATE AMINOTRANSFERASE [1]: 81.67 u/L
- BLOOD UREA NITROGEN [1]: 13.33 mg/dL
- CARBON DIOXIDE [1]: 32.67 mmol/L
- CHLORIDE [1]: 98.67 MEQ/L
- CHOLESTEROL [1]: 35 mg/dL
- CREATINE PHOSPHOKINASE [1]: 259.67 u/L
- CREATININE [1]: 0.16 mg/dL
- GLUCOSE [1]: 144 mg/dL
- LACTATE DEHYDROGENASE [1]: 113 u/L
- LIPASE [1]: 8 u/L
- PHOSPHORUS [1]: 10.33 mg/dL
- POTASSIUM [1]: 5.69 MEQ/L
- SODIUM [1]: 144.47 MEQ/L
- TOTAL BILIRUBIN [1]: 0.2 mg/dL
- TOTAL PROTEIN [1]: 6.07 G/DL
- URIC ACID [1]: 0.33 mg/dL
- ABSOLUTE BASOPHIL [2]: 0 CELLS/uL
- ABSOLUTE EOSINOPHIL [2]: 39.67 CELLS/uL
- ABSOLUTE LYMPHOCYTE [2]: 9030.67 CELLS/uL
- ABSOLUTE MONOCYTE [2]: 107.33 CELLS/uL
- ABSOLUTE SEGMENTED NEUTROPHIL [2]: 755.67 CELLS/uL
- BASOPHIL [2]: 0%
- EOSINOPHIL [2]: 0.33%
- ERYTHROCYTE COUNT [2]: 6.43 x10E6/uL
- HEMATOCRIT [2]: 39.27%
- HEMOGLOBIN [2]: 14.53 G/DL
- LEUKOCYTE COUNT [2]: 9.93 x10E3/uL
- LYMPHOCYTE [2]: 91%
- MEAN CORPUSCULAR HEMOGLOBIN [2]: 22.63 pg
- MEAN CORPUSCULAR HEMOGLOBIN CONCENTRATION [2]: 37.07 G/DL
- MEAN CORPUSCULAR VOLUME [2]: 61.07 fL
- MONOCYTE [2]: 1%
- NEUTROPHIL [2]: 7.67%
- NUCLEATED RED BLOOD CELLS [2]: 0.33 /100WBC
- PLATELET COUNT [2]: 951 x10E3/uL
- ALANINE AMINOTRANSFERASE [2]: 74 u/L
- ALBUMIN [2]: 4.1 G/DL
- ALKALINE PHOSPHATASE [2]: 493.67 u/L
- ASPARTATE AMINOTRANSFERASE [2]: 138.33 u/L
- BLOOD UREA NITROGEN [2]: 12.67 mg/dL
- CARBON DIOXIDE [2]: 34.33 mmol/L
- CHLORIDE [2]: 96.5 MEQ/L
- CHOLESTEROL [2]: 46.67 mg/dL
- CREATINE PHOSPHOKINASE [2]: 1177 u/L
- CREATININE [2]: 0.14 mg/dL
- GLUCOSE [2]: 134.33 mg/dL
- LACTATE DEHYDROGENASE [2]: 200 u/L
- LIPASE [2]: 11 u/L
- PHOSPHORUS [2]: 11.53 mg/dL
- POTASSIUM [2]: 6.12 MEQ/L
- SODIUM [2]: 142.35 MEQ/L
- TOTAL BILIRUBIN [2]: 0.33 mg/dL
- TOTAL PROTEIN [2]: 6.33 G/DL
- URIC ACID [2]: 0.5 mg/dL
- ABSOLUTE BASOPHIL [3]: 0 CELLS/uL
- ABSOLUTE EOSINOPHIL [3]: 31.33 CELLS/uL
- ABSOLUTE LYMPHOCYTE [3]: 9499.67 CELLS/uL
- ABSOLUTE MONOCYTE [3]: 0 CELLS/uL
- ABSOLUTE SEGMENTED NEUTROPHIL [3]: 1135.67 CELLS/uL
- BASOPHIL [3]: 0%
- EOSINOPHIL [3]: 0.33%
- ERYTHROCYTE COUNT [3]: 6.28 x10E6/uL
- HEMATOCRIT [3]: 37.87%
- HEMOGLOBIN [3]: 14.4 G/DL
- LEUKOCYTE COUNT [3]: 10.67 x10E3/uL
- LYMPHOCYTE [3]: 88.67%
- MEAN CORPUSCULAR HEMOGLOBIN [3]: 22.93 pg
- MEAN CORPUSCULAR HEMOGLOBIN CONCENTRATION [3]: 38.03 G/DL
- MEAN CORPUSCULAR VOLUME [3]: 60.33 fL
- MONOCYTE [3]: 0%
- NEUTROPHIL [3]: 11%
- NUCLEATED RED BLOOD CELLS [3]: 0 /100WBC
- PLATELET COUNT [3]: 1393.33 x10E3/uL
- ALANINE AMINOTRANSFERASE [3]: 46 u/L
- ALBUMIN [3]: 3.87 G/DL
- ALKALINE PHOSPHATASE [3]: 445.33 u/L
- ASPARTATE AMINOTRANSFERASE [3]: 64.67 u/L
- BLOOD UREA NITROGEN [3]: 16 mg/dL
- CARBON DIOXIDE [3]: 32.33 mmol/L
- CHLORIDE [3]: 99 MEQ/L
- CHOLESTEROL [3]: 12.33 mg/dL
- CREATINE PHOSPHOKINASE [3]: 238.67 u/L
- CREATININE [3]: 0.14 mg/dL
- GLUCOSE [3]: 131.33 mg/dL
- LACTATE DEHYDROGENASE [3]: 117.33 u/L
- LIPASE [3]: 7.67 u/L
- PHOSPHORUS [3]: 11.13 mg/dL
- POTASSIUM [3]: 5.01 MEQ/L
- SODIUM [3]: 144.1 MEQ/L
- TOTAL BILIRUBIN [3]: 0.1 mg/dL
- TOTAL PROTEIN [3]: 5.8 G/DL
- URIC ACID [3]: 0.3 mg/dL
